# In ChEMBL document CHEMBL5608215, “Development of amphipathic derivatives of thymol and carvacrol as potent broad-spectrum antibacterial agents” (Eur J Med Chem, 2024):
# The source made the active and inactive calls. The calls are words filed in the database; no cut-off is given here.
# What was measured:
# Staphylococcus aureus [1] = test: Antibacterial activity against Staphylococcus aureus ATCC29213 assessed as cell surface wrinkling at 8 times MIC by SEM analysis; type: functional, organism-based
# Staphylococcus aureus [2] = test: Bactericidal activity against Staphylococcus aureus ATCC29213 incubated upto 24 hrs by time-kill assay; type: functional, organism-based
# [3] = Toxicity in KM mouse assessed as histopathological abnormality in lung upto 40 mg/kg, ip measured for 24 hrs by H and E staining based analysis; type: organism-based; conditions: in vivo
# Escherichia coli [4] = test: Bactericidal activity against Escherichia coli ATCC25922 at 8 times MIC incubated for 12 hrs by time-kill assay relative to control; type: functional
# Staphylococcus aureus [5] = test: Antibacterial activity against Staphylococcus aureus ATCC29213 assessed as cell membrane damage incubated for 8 mins by SYTOX Green uptake assay; type: functional, organism-based
# Escherichia coli [6] = test: Antibacterial activity against Escherichia coli ATCC25922 by CLSI based serial dilution method; type: functional
# Enterococcus faecalis [7] = test: Antibacterial activity against Enterococcus faecalis ATCC29212 assessed as leakage of cell contents at 8 times MIC by SEM analysis; type: functional, organism-based
# Staphylococcus aureus [8] = test: Antibacterial activity against Staphylococcus aureus ATCC29213 infected in mouse model assessed as bacterial concentration at 5 mg/kg, sc measured after 24 hrs (reference value: 10^10.13 CFU/g); type: functional
# [9] = Toxicity in KM mouse assessed as histopathological abnormality in heart upto 40 mg/kg, ip measured for 24 hrs by H and E staining based analysis; type: organism-based; conditions: in vivo
# Staphylococcus aureus [10] = test: Antibacterial activity against Staphylococcus aureus ATCC25923 upto 32 ug/ml incubated for 16 to 18 hrs in presence of peptidoglycan; type: functional, organism-based; conditions: dose <= 32.0 µg/ml, time 16-18 hrs
# Enterococcus = test: Antibacterial activity against vancomycin-resistant Enterococcus ATCC51299 by CLSI based serial dilution method; type: functional
# Staphylococcus aureus [11] = test: Antibacterial activity against Staphylococcus aureus ATCC29213 assessed as cell membrane damage at 8 times MIC by NucGreen/EthD-III staining based analysis; type: functional, organism-based
# [12] = Toxicity in KM mouse assessed as histopathological abnormality in spleen upto 40 mg/kg, ip measured for 24 hrs by H and E staining based analysis; type: organism-based; conditions: in vivo
# Staphylococcus aureus [13] = test: Bactericidal activity against Staphylococcus aureus ATCC29213 at 8 times MIC incubated for 24 hrs by time-kill assay relative to control; type: functional
# Staphylococcus aureus [14] = test: Antibacterial activity against Staphylococcus aureus ATCC25923 upto 32 ug/ml incubated for 16 to 18 hrs in presence of phosphatidylethanolamine; type: functional, organism-based; conditions: dose <= 32.0 µg/ml, time 16-18 hrs
# Enterococcus faecalis [15] = test: Antibacterial activity against Enterococcus faecalis ATCC29212 by CLSI based serial dilution method; type: functional
smiles,measurement,setting,value
CCCCCCCNC(=O)C[N+](C)(C)CCCCOc1cc(C)ccc1C(C)C.[Br-],Activity,Staphylococcus aureus [1],Active
same,Activity,Staphylococcus aureus [2],Dose-Dependent Effect
same,Activity,[3],Non-Toxic
same,Activity,Escherichia coli [4],100%
same,Activity,Staphylococcus aureus [5],Dose-Dependent Effect
same,MIC,Escherichia coli [6],2 mg/L
same,Activity,Enterococcus faecalis [7],Active
same,Activity,Staphylococcus aureus [8],~1 10^7.99CFU/g
same,Activity,[9],Non-Toxic
same,Activity,Staphylococcus aureus [10],Active
same,MIC,Enterococcus,2 mg/L
same,Activity,Staphylococcus aureus [11],Active
same,Activity,[12],Non-Toxic
same,Activity,Staphylococcus aureus [13],>99.9%
same,Activity,Staphylococcus aureus [14],inactive
same,MIC,Enterococcus faecalis [15],1 mg/L
